# Measurements reported in US20070009503A1, “Antibiotic, Compositions Containing the Antibiotic, and Methods for Administering the Antibiotic and/or Said Compositions to Livestock” (priority 2004, published 2007).
# Where no end group is shown, it is not given here.
# Test system: Lactobacillus sakei JCM1157
# Test: Growth inhibition zones on MRS agar plates containing protease Umamizyme G, overlaid with indicator strain
# Format: cell-based
# Details: Example 2, protease 0 U/mL
# Protocol: The lactic acid bacterium Weissella sp. AJ110263 (FERM P-19577), isolated from fermented milk matsoon, and the lactic acid bacteria Pediococcus pentosaceus JCM5885, Pediococcus pentosaceus JCM5890, Lactobacillus plantarum JCM1149, and Lactobacillus salivarius JCM1231, obtained from type cultures, were precultured and cultured on MRS liquid medium (Table 1 above). The culture temperature was 30° C. for Weissella sp. and 37° C. for the other strains. The above lactic acid bacteria were inoculated onto and cultured for 24 hours on MRS agar medium plates to which “Umamizyme G”, a protease derived from Aspergillus, had been added in quantities of 0 U/mL (none added), 200 U/ML, and 400 U/mL. In culturing, 100 mL of MRS medium was added to a 500 mL Sakaguchi flask, […] was inoculated, and the medium was shaken 100 times/min.
# These plates were cultured for 24 hours at 30° C., resulting in the formation of growth inhibition zones in the indicator strains (Table 10 below).
# Lactococcus lactis NCD0497 (a bacterium producing nisin A) and Lactococcus lactis NCIMB702054 (a bacterium producing nisin Z) were separately cultured in MRS liquid medium at 30° C. In the same manner as in Example 1, antibiotic evaluation was conducted using Lactobacillus sakei strain JCM1157 as an indicator strain. […]
substance,measurement,value
"Nisin A: nisin A 1,000 IU/mL solution made by ICN Biomedical, spotted without bacterial strains (ITSISLCTPGCKTGALMGCNMKTATCHCSIHVSK; also: lantibiotic, lanthionine bridges and dehydro residues not placed; UniProt P13068 24-57, looked up)",diameters of the proliferation inhibition zones,30
